From patent US10131717B2, “Topically administered, skin-penetrating glycosaminoglycan formulations suitable for use in cosmetic and pharmaceutical applications” (London Health Sciences Centre Research Inc., priority 2010, dated 2018)

Experiments:
[1] = system: senescent human fibroblasts; test: Percent of cells with hyaluronan coats and coat size in senescent human fibroblasts; format: cell-based; conditions: FIG. 2
Method: Modified hyaluronan (HA-PE-1), prepared according to Example 2, or hyaluronan alone (350 kDA; 10 mg/mL stock solution in saline) was added to senescent human fibroblasts in increasing concentrations (0-100 μg/mL).
The effect of the addition of modified hyaluronan (HA-PE-1; 50 μg/mL) vs. hyaluronan alone (50 μg/mL) on the cell coat area of the cells was quantified using image analysis (Elements 3.1, Nikon). […] Values are means and S.E.M. for 10 samples.

[2] = system: human dermal fibroblasts; test: Hyaluronan cell coats on cultured human dermal fibroblasts (fluorescent nanosphere exclusion); format: cell-based; conditions: hyaluronan 500 μg/mL (350 kDa) or HA-PE-1 25 μg/mL, 1 hour; compared to PBS control; FIG. 1
Method: The suitability of the present compositions was assessed by determining its ability to encase/surround cultured dermal fibroblasts grown from a punch biopsy of human skin. Punch biopsies were placed in a sterile tissue culture dish (35×10 mm, tissue culture dish) and cut with small (e.g., 19 G) sterile needles into small fragments. The fragments were allowed to dry briefly (e.g., no more than 10 minutes) to the bottom of the tissue culture dish to promote adherence of the tissue fragments. Dulbecco's modified Eagles Medium (DMEM), supplements with 10% fetal calf serum (FCS) was then gently added and the culture is then placed in a humidified 37° C. incubator supplemented with 5% CO2 for approximately one week. […]
In the images shown in FIG. 1, the hyaluronan cell coat is observed as a dark space since small fluorescent beads are excluded by the coat as denoted by the arrow within the image. Cells without coats […] are entirely covered by the fluorescent beads.

[3] = system: female BL6 wild-type mice; test: Comparison of ability to penetrate the skin barrier of mice (hyaluronan staining; treated vs untreated area); format: in vivo, mouse
Description: HA-PE-2, prepared as described in Example 3, hyaluronan mixed with, but not covalently linked to, lipids in the lecithins present in Example 3 (see Example 1), and hyaluronan alone (no additional phospholipid), were each formulated with a NIVEA Creme cosmetic base cream (1:1, v/v) as described in Example 4. The creams were then applied to the shaved backs (0.18 g HA-PE-2/application, 40×30 mm shaved area) of 9-month old female BL6 wild-type mice once daily for 4 days. After this time, one group of animals was euthanized and processed according to the procedure described in Example 9. A second group of animals were left without further treatment for an additional […] and euthanized/processed as described in Example 9 on day 7.
Since the amount of endogenous hyaluronan in skin can vary with location, internal controls were designed to evaluate hyaluronan staining of treated and control skin were developed to confirm the difference between the treated vs. untreated skin area. HA-PE-2 and control creams (hyaluronan only) were applied to the shaved backs of mice as previously described. Areas of treatment were marked (hair in the adjacent untreated margins was removed with Nair™ and the punch aligned to include the treated and untreated region; tissue punches were orientated in small tissue baskets to keep the tissue in the correct orientation throughout processing and marked with a histology marker pen) and tissue was harvested/processed as previously described (Example 9).

[4] = system: skin barrier; conditions: Kaya et al.; cited from earlier work

For hyaluronan, the “concentration at which the percentage of cells with coats reached a plateau” value ([1]; 0-100 μg/mL) was 10 µg/mL, the “percentage of cells that exhibited hyaluronan coats” value ([1]; increasing concentrations 0-100 μg/mL) was “fewer cells with hyaluronan coats” and the “size of the hyaluronan coat (exclusion of fluorescent beads)” value [2] was “little additional effect”. The “hyaluronan staining / hyaluronan penetrating the skin barrier” value ([3]; creams once daily for 4 days, p<0.000001, FIG. 9, 10) was “negligible amounts of hyaluronan penetrating the skin barrier”, the “hyaluronan staining in keratinocytes following cessation of treatment” value ([3]; day 7, treatment stopped after day 4, FIG. 9, 10) was “remained negligible” and the “hyaluronan staining at the application edge, treated vs untreated area of skin” value ([3]; internal control, p<0.000001, FIG. 11, 12) was “a distinct margin of staining was not observed”. The “retention in skin of topically applied hyaluronan (literature)” value [4] was “poorly retained in the epidermal layer”.
